The values below come from ChEMBL document CHEMBL1121707, “Synthesis of 2'-deoxy-L-fucopyranosylcarminomycinone and -epsilon-pyrromycinone as well as 2'-deoxy-D-erythro-pentopyranosyldaunomycinone, -carminomycinone, and -epsilon-pyrromycinone” (1981).

Each structure is given as a SMILES string.

Test [1] concerns Bacillus subtilis. The test is described as follows: Tested for antibacterial effect against Bacillus subtilis-8 at dose 12.5 ug/mL. Format: functional.
Test [2] deals with Bacillus subtilis. The test is described as follows: Tested for antibacterial effect against Bacillus subtilis-8 at dose 25 ug/mL. Format: functional.
Test [3] has as its system Bacillus subtilis. As to the kind of experiment: Tested for antibacterial effect against Bacillus subtilis-8 at dose 3.1 ug/mL. Format: functional.
The test system of test [4] is Bacillus subtilis. As to the kind of experiment: Tested for antibacterial effect against Bacillus subtilis-8 at dose 50 ug/mL. It is filed as functional.
In test [5] the test system is Bacillus subtilis. As to the kind of experiment: Tested for antibacterial effect against Bacillus subtilis-8 at dose 6.25 ug/mL. Format: functional.
The test system of test [6] is L1210. As to the kind of experiment: Average weight change after administration at 0.4 mg/kg intraperitoneally in mice on day 1 in experiment 1. Format: functional, Mus musculus. The following applies: route intraperitoneal.
For test [7], the system named is L1210. The test is described as follows: Average weight change after administration at 0.8 mg/kg intraperitoneally in mice on day 1 in experiment 1. To be noted: route intraperitoneal. Format: functional, Mus musculus.
For test [8], the system named is L1210. As to the kind of experiment: Average weight change after administration at 1.6 mg/kg intraperitoneally in mice on day 1 in experiment 2. To be noted: route intraperitoneal. It is filed as functional, Mus musculus.
The subject of test [9] is L1210. As to the kind of experiment: Average weight change after administration at 12.8 mg/kg intraperitoneally in mice on day 1 in experiment 1. It is filed as functional, Mus musculus. The following applies: route intraperitoneal.
In test [10] the test system is L1210. As to the kind of experiment: Average weight change after administration at 12.8 mg/kg intraperitoneally in mice on day 1 in experiment 2. Format: functional, Mus musculus. The following applies: route intraperitoneal.
In test [11] the test system is L1210. As to the kind of experiment: Average weight change after administration at 25.6 mg/kg intraperitoneally in mice on day 1 in experiment 2. The following applies: route intraperitoneal. It is filed as functional, Mus musculus.
Test [12] relates to L1210. As to the kind of experiment: Average weight change after administration at 3.2 mg/kg intraperitoneally in mice on day 1 in experiment 1. Format: functional, Mus musculus. To be noted: route intraperitoneal.
The test system of test [13] is L1210. As to the kind of experiment: Average weight change after administration at 3.2 mg/kg intraperitoneally in mice on day 1 in experiment 2. Format: functional, Mus musculus. The following applies: route intraperitoneal.
The subject of test [14] is L1210. As to the kind of experiment: Average weight change after administration at 51.2 mg/kg intraperitoneally in mice on day 1 in experiment 2. Format: functional, Mus musculus. To be noted: route intraperitoneal.
In test [15] the test system is L1210. As to the kind of experiment: Average weight change after administration at 6.4 mg/kg intraperitoneally in mice on day 1 in experiment 1. It is filed as functional, Mus musculus. To be noted: route intraperitoneal.
Test [16] relates to L1210. The test is described as follows: Average weight change after administration at 6.4 mg/kg intraperitoneally in mice on day 1 in experiment 2. To be noted: route intraperitoneal. It is filed as functional, Mus musculus.
Test [17] has as its system L1210. The test is described as follows: Average weight change after administration from 1-9 days at 0.4 mg/kg intraperitoneally in BDF1 mice. Format: functional, Mus musculus. To be noted: route intraperitoneal.
In test [18] the test system is L1210. The test is described as follows: Average weight change after administration from 1-9 days at 0.8 mg/kg intraperitoneally in BDF1 mice. Format: functional, Mus musculus. The following applies: route intraperitoneal.
In test [19] the test system is L1210. As to the kind of experiment: Average weight change after administration from 1-9 days at 1.6 mg/kg intraperitoneally in BDF1 mice. It is filed as functional, Mus musculus. To be noted: route intraperitoneal.
In test [20] the test system is L1210. As to the kind of experiment: Average weight change after administration from 1-9 days at 12.8 mg/kg intraperitoneally in BDF1 mice. The following applies: route intraperitoneal. Format: functional, Mus musculus.
Test [21] has as its system L1210. As to the kind of experiment: Average weight change after administration from 1-9 days at 3.2 mg/kg intraperitoneally in BDF1 mice. The following applies: route intraperitoneal. It is filed as functional, Mus musculus.
The test system of test [22] is L1210. The test is described as follows: Average weight change after administration from 1-9 days at 6.4 mg/kg intraperitoneally in BDF1 mice. The following applies: route intraperitoneal. Format: functional, Mus musculus.
The test system of test [23] is L1210. The test is described as follows: Average weight change after administration at 1.6 mg/kg intraperitoneally in mice on day 1 in experiment 1. It is filed as functional, Mus musculus. The following applies: route intraperitoneal.
In test [24] the test system is L1210. As to the kind of experiment: Median survival time of treated to that of control after administration at 0.4 mg/kg intraperitoneally in BDF1 mice on day 1. To be noted: route intraperitoneal. It is filed as functional, Mus musculus.
In test [25] the test system is L1210. As to the kind of experiment: Median survival time of treated to that of control after administration at 0.8 mg/kg intraperitoneally in BDF1 mice on day 1. It is filed as functional, Mus musculus. To be noted: route intraperitoneal.
Test [26] concerns L1210. As to the kind of experiment: Median survival time of treated to that of control after administration at 1.6 mg/kg intraperitoneally in BDF1 mice on day 1. It is filed as functional, Mus musculus. To be noted: route intraperitoneal.
Test [27] deals with L1210. The test is described as follows: Tested for survivors on day 5 after administration at 6.4 mg/kg intraperitoneally in mice on day 1. It is filed as functional, Mus musculus. To be noted: route intraperitoneal.
The test system of test [28] is L1210. The test is described as follows: Median survival time of treated to that of control after administration at 12.8 mg/kg intraperitoneally in BDF1 mice on day 1. It is filed as functional, Mus musculus. To be noted: route intraperitoneal.
Test [29] concerns L1210. As to the kind of experiment: Median survival time of treated to that of control after administration at 3.2 mg/kg intraperitoneally in BDF1 mice on day 1. It is filed as functional, Mus musculus. The following applies: route intraperitoneal.
Test [30] relates to L1210. The test is described as follows: Average weight change after administration at 0.4 mg/kg intraperitoneally in mice on day 1. Format: functional, Mus musculus. To be noted: route intraperitoneal.
Test [31] relates to L1210. As to the kind of experiment: Average weight change after administration at 0.8 mg/kg intraperitoneally in mice on day 1. Format: functional, Mus musculus. To be noted: route intraperitoneal.
The subject of test [32] is L1210. As to the kind of experiment: Average weight change after administration at 1.6 mg/kg intraperitoneally in mice on day 1. Format: functional, Mus musculus. The following applies: route intraperitoneal.
For test [33], the system named is L1210. The test is described as follows: Average weight change after administration at 12.8 mg/kg intraperitoneally in mice on day 1. It is filed as functional, Mus musculus. To be noted: route intraperitoneal.
In test [34] the test system is L1210. The test is described as follows: Average weight change after administration at 3.2 mg/kg intraperitoneally in mice on day 1. It is filed as functional, Mus musculus. The following applies: route intraperitoneal.
The test system of test [35] is L1210. The test is described as follows: Tested for survivors on day 5 after administration at 3.2 mg/kg intraperitoneally in mice on day 1. It is filed as functional, Mus musculus. To be noted: route intraperitoneal.
In test [36] the test system is L1210. The test is described as follows: Tested for survivors on day 5 after administration at 0.4 mg/kg intraperitoneally in mice on day 1. Format: functional, Mus musculus. To be noted: route intraperitoneal.
Test [37] has as its system L1210. The test is described as follows: Tested for survivors on day 5 after administration at 0.8 mg/kg intraperitoneally in mice on day 1. Format: functional, Mus musculus. The following applies: route intraperitoneal.
The test system of test [38] is L1210. As to the kind of experiment: Tested for survivors on day 5 after administration at 1.6 mg/kg intraperitoneally in mice on day 1. The following applies: route intraperitoneal. It is filed as functional, Mus musculus.
Test [39] concerns L1210. As to the kind of experiment: Tested for survivors on day 5 after administration at 12.8 mg/kg intraperitoneally in mice on day 1. It is filed as functional, Mus musculus. To be noted: route intraperitoneal.
In test [40] the test system is L1210. The test is described as follows: Median survival time of treated to that of control after administration at 6.4 mg/kg intraperitoneally in BDF1 mice on day 1. It is filed as functional, Mus musculus. The following applies: route intraperitoneal.

`CC(=O)[C@]1(O)Cc2c(O)c3c(c(O)c2[C@@H](O[C@H]2C[C@H](O)[C@H](O)[C@H](C)O2)C1)C(=O)c1c(O)cccc1C3=O`: the Inhibition zone was determined as 21.3 mm with Bacillus subtilis [1]; 21.5 mm in the test with Bacillus subtilis [2]; 17.2 mm with Bacillus subtilis [3]; 21.5 mm in the test with Bacillus subtilis [4]; 19.5 mm in the test with Bacillus subtilis [5]. In addition, the Average weight change in the test on L1210 [6] was -0.8; in the test on L1210 [7], 1.2; with L1210 [8], -0.6; in the test on L1210 [9] it was -0.4; in the test on L1210 [10] it was 0.3; in the test on L1210 [11] it was -1.2. Also, the Average weight change was -0.9 with L1210 [12]; 0.2 with L1210 [13]; -1.9 with L1210 [14]; -1.1 in the test with L1210 [15]; 0.7 in the test with L1210 [16]; 0.6 in the test with L1210 [17]. For the same compound, the Average weight change in the test with L1210 [18] is 2.3; in the test with L1210 [19], 0.6; in the test on L1210 [20], -1.6; in the test with L1210 [21], -0.3; with L1210 [22], 2.4; with L1210 [23], -0.8.
For the compound `C/C(=N\NC(=O)c1ccccc1)[C@]1(O)Cc2c(O)c3c(c(O)c2[C@@H](O[C@H]2C[C@H](O)[C@H](O)[C@H](C)O2)C1)C(=O)c1c(O)cccc1C3=O`, the Inhibition zone in the test on Bacillus subtilis [1] was 12.8 mm; with Bacillus subtilis [2] it was 13.8 mm; with Bacillus subtilis [4] it was 15 mm; with Bacillus subtilis [5] it was 10.3 mm. In addition, the T/C (as a rule, the ratio of treated to control) was 100% in the test with L1210 [24]; 93% in the test on L1210 [25]; 100% in the test on L1210 [26]; 114% with L1210 [28]; 93% in the test on L1210 [29]; 107% in the test on L1210 [40]. Besides, the Survivors with L1210 [27], with L1210 [35], in the test on L1210 [36], in the test with L1210 [37], in the test on L1210 [38] and in the test with L1210 [39] was 6 in each case. Also, the Average weight change is listed as 2.3 in the test with L1210 [30]; 1.5 in the test with L1210 [31]; 2 with L1210 [32]; -0.3 in the test with L1210 [33]; 1.9 in the test on L1210 [34].
